According to BindingDB's records for doi:10.1016/S0960-894X(00)80683-6 (1993):
pIC50: −log10 of the molar value.

Key:
[1] = biological target: Gastrin/cholecystokinin type B receptor (Cavia porcellus); assay: Ability to inhibit the binding of [125I]CCK-8 to Cholecystokinin type B receptor in guinea pig cortex.
[2] = biological target: Gastrin/cholecystokinin type B receptor (Cavia porcellus); assay: Ability to inhibit the binding of [125I]-gastrin to gastric glands in guinea pig.
[3] = biological target: Gastrin/cholecystokinin type B receptor (Cavia porcellus); assay: Ability to inhibit the binding of [125I]CCK-8 to Cholecystokinin type B receptor in guinea pig cortex.; remark: listed apart in the source

Row | SMILES | pIC50 [1] | pIC50 [2] | pIC50 [3]
1 | CC(C)(C)OC(=O)CN1C(=O)C(NC(=O)Nc2ccc(Cl)cc2)CCc2ccccc21 (configuration not stated) [{3-[3-(4-Chloro-phenyl)-ureido]-2-oxo-2,3,4,5-tetrahydro-benzo[b]azepin-1-yl}-acetic acid tert-butyl ester] | 6.74 | 6.92 | 
2 | CN1CCN(C(=O)CN2C(=O)C(NC(=O)Nc3ccc(Cl)cc3)N=C(c3ccccc3)c3ccccc32)CC1 (configuration not stated) [1-(4-Chloro-phenyl)-3-{1-[2-(4-methyl-piperazin-1-yl)-2-oxo-ethyl]-2-oxo-5-phenyl-2,3-dihydro-1H-benzo[e][1,4]diazepin-3-yl}-urea] | 8.10 | 8.59 | 
3 | COc1cccc(NC(=O)NC2CCc3ccccc3N(CC(=O)O)C2=O)c1 (configuration not stated) [{3-[3-(3-Methoxy-phenyl)-ureido]-2-oxo-2,3,4,5-tetrahydro-benzo[b]azepin-1-yl}-acetic acid] | 5.07 | 5.51 | 

Second part, the compound after the results:

Row | pIC50 [1] | pIC50 [2] | pIC50 [3] | SMILES
4 |  | 6.32 | 6.82 | CC(C)(C)OC(=O)CN1C(=O)C(NC(=O)Nc2cccc3ccccc23)CCc2ccccc21 (configuration not stated) [[3-(3-Naphthalen-1-yl-ureido)-2-oxo-2,3,4,5-tetrahydro-benzo[b]azepin-1-yl]-acetic acid tert-butyl ester]
5 |  | 6.21 | 5.30 | Cc1cccc(NC(=O)NC2CCc3ccccc3N(CC(=O)N3CCN(C)CC3)C2=O)c1 (configuration not stated) [1-{1-[2-(4-Methyl-piperazin-1-yl)-2-oxo-ethyl]-2-oxo-2,3,4,5-tetrahydro-1H-benzo[b]azepin-3-yl}-3-m-tolyl-urea]
6 | 6.19 | 6.34 |  | O=C(Nc1cccc2ccccc12)NC1CCc2ccccc2N(CC(=O)N2CCCC2)C1=O (configuration not stated) [1-Naphthalen-1-yl-3-[2-oxo-1-(2-oxo-2-pyrrolidin-1-yl-ethyl)-2,3,4,5-tetrahydro-1H-benzo[b]azepin-3-yl]-urea]
